Laboratory results published in patent publication US20220380378A1 (ESSA Pharma, Inc., priority 2021, published 2022).

Target: T1, androgen receptor (AR) (Homo sapiens, UniProt P10275, T878A)
T1 sequence (P10275 1-920 T878A): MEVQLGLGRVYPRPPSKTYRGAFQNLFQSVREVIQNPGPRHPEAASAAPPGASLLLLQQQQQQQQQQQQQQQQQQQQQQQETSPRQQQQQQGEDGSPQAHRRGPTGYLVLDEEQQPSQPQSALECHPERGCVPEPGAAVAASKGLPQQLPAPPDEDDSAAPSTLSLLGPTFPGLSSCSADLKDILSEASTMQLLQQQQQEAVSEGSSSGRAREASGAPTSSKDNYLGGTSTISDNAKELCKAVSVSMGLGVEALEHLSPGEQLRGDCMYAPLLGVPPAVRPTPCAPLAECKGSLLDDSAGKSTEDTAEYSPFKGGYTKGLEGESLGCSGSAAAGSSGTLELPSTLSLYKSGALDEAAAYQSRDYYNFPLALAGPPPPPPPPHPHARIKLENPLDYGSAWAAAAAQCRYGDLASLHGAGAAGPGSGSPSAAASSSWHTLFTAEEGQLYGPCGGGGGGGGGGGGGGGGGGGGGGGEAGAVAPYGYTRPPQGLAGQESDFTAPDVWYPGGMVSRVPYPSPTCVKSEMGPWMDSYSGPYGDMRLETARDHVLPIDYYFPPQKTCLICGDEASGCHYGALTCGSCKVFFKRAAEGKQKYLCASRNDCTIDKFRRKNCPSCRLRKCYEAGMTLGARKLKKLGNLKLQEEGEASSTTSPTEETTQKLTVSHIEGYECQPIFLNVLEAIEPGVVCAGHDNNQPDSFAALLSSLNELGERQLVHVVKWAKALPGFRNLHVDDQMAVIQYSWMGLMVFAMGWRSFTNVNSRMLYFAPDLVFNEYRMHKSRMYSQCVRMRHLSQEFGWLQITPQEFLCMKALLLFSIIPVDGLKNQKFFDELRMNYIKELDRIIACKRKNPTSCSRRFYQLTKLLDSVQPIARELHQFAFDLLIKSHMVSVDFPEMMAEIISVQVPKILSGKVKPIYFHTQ
Test: Androgen-induced PSA (6.1 kb)-luciferase reporter assay in LNCaP cells (R1881 1 nM)
Assay type: cell-based
Design: endogenous in cells; host or cells: LNCaP
Conditions: 24 h, read-out: PSA-Luc IC50 Range
Method: The PSA (6.1 kb)-luciferase reporter contains functional AREs (androgen response elements) to which AR binds in response to androgen to induce luciferase activity. LNCaP cells were transiently transfected with the PSA (6.1 kb)-luciferase reporter for 24 h, and then pretreated with vehicle (DMSO) or indicated concentration of representative compounds for one hour prior to the addition of synthetic androgen, R1881 (1 nM). After 24 h of incubation with R1881, the cells were harvested, and relative luciferase activities were determined (FIG. 1). To determine the IC50, treatments were normalized to vehicle control activity induced by R1881 (Table 2).
Luciferase Assay: Cells were lysed using Passive Lysis Buffer (Promega) and then collected into V-bottom 96-well tissue culture plates. Lysates were centrifuged at 4° C. for 5 minutes at 3000 rpm. To measure luminescence of LNCaP cell lysates the Firefly Luciferase Assay System (Promega) was employed, according to manufacturer's protocol. Relative luminescence units (RLU) in cell lysates were detected for 10 seconds using Promega GloMax-Multi Detection Luminometer (Promega). Values were normalized to protein content. GraphPad Prism graphing software was used to calculate IC50 values.
Statistical analyses were performed using GraphPad Prism (Version 6.01 for Windows; La Jolla, Calif., USA). Comparisons between treatment and control groups were compared using Two-Way ANOVA with post-hoc Dunnett's and Tukey's tests. Differences were considered statistically significant at P values less than 0.05.

Row | IC50 [nM] | SMILES
1 | 500 to 2000 | CS(=O)(=O)N[C@@H]1CC[C@@H](Oc2ccc3c(ccn3-c3cc(Cl)c(OCCCl)c(C#N)c3)c2)C1 [Compound A207]
2 | 500 to 2000 | CC(C)(c1ccc(-c2ccc3oc(NS(C)(=O)=O)nc3c2)cc1)c1cc(Cl)c(OCCCl)c(C#N)c1 [Compound A255]
3 | > 2000 | CS(=O)(=O)NCC1CCN(Cc2ccc3c(ccn3-c3cc(Cl)c(OCCCl)c(C#N)c3)c2)CC1 [Compound A236]
4 | > 2000 | CC(C)(c1ccc(-c2ccc3c(c2)OCC(CNS(C)(=O)=O)O3)cc1)c1cc(Cl)c(OCCCl)c(C#N)c1 (centres unmarked) [Compound A230]
5 | > 2000 | CS(=O)(=O)N1CCC[C@@H](COc2ccc3c(ccn3-c3cc(Cl)c(OCCCl)c(C#N)c3)c2)C1 [Compound A204]
6 | 500 to 2000 | CC(C)(c1ccc(OCC23CCN(S(C)(=O)=O)C(C2)C3)cc1)c1cc(Cl)c(OCCCl)c(C#N)c1 [Compound A284]
7 | 500 to 2000 | CC(C)(c1ccc(OCc2ccnc(NS(C)(=O)=O)n2)cc1)c1cc(Cl)c(OCCCCl)c(C#N)c1 [Compound A181]
8 | > 2000 | CC(C)(c1ccc(OCc2ccnc(NS(C)(=O)=O)n2)cc1)c1cc(Cl)c(OCC(O)CCl)c(C#N)c1 (centres unmarked) [Compound A258]
9 | 500 to 2000 | CS(=O)(=O)NC1(CCOc2ccc3c(ccn3-c3cc(Cl)c(OCCCl)c(C#N)c3)c2)CC1 [Compound A227]
10 | > 2000 | CS(=O)(=O)NCc1ccc(-c2ccc3c(ccn3-c3cc(Cl)c(OCCCl)c(C#N)c3)c2)cc1 [Compound A164]
11 | > 2000 | CC(C)(c1ccc(OCc2ccnc(NS(C)(=O)=O)n2)cc1)c1cc(F)c(N2CC3(CCC3)C2)c(C#N)c1 [Compound A240, N-(4-((4-(2-(3-cyano-5-fluoro-4-(2-azaspiro[3.3]heptan-2-yl)phenyl)propan-2-yl)phenoxy)methyl)pyrimidin-2-yl)methanesulfonamide]
12 | 500 to 2000 | CC(C)(c1ccc(OCC23CCC(NS(C)(=O)=O)(CC2)C3)cc1)c1cc(Cl)c(OCCCl)c(C#N)c1 [Compound A272]
13 | 500 to 2000 | CS(=O)(=O)N1CCC2(CCC2Oc2ccc3c(ccn3-c3cc(Cl)c(OCCCl)c(C#N)c3)c2)CC1 (centres unmarked) [Compound A222]
14 | > 2000 | CS(=O)(=O)N[C@H]1CC[C@@H](COc2ccc3c(ccn3-c3cc(Cl)c(OCCCl)c(C#N)c3)c2)CC1 [Compound A208]
15 | 500 to 2000 | CC(C)(c1ccc(-c2ccc3nc(N)ncc3c2)cc1)c1cc(Cl)c(OCCCl)c(C#N)c1 [Compound A177]
16 | 500 to 2000 | CC(C)(c1ccc(-c2cnc3nc(NS(C)(=O)=O)ncc3c2)cc1)c1cc(Cl)c(OCCCl)c(C#N)c1 [Compound A192]
17 | 500 to 2000 | CS(=O)(=O)NC[C@H]1CC[C@H](COc2ccc3c(ccn3-c3cc(Cl)c(OCCCl)c(C#N)c3)c2)CC1 [Compound A209]
18 | 500 to 2000 | CC(C)(c1ccc(-c2ccc3nc(NS(C)(=O)=O)nc(N4CCOCC4)c3c2)cc1)c1cc(Cl)c(OCCCl)c(C#N)c1 [Compound A196]
19 | > 2000 | CC(C)(c1ccc(-c2ccc3nc(NS(C)(=O)=O)oc3n2)cc1)c1cc(Cl)c(OCCCl)c(C#N)c1 [Compound A282]
20 | 500 to 2000 | CS(=O)(=O)N1CCC[C@@H]1COc1ccc2c(ccn2-c2cc(Cl)c(OCCCl)c(C#N)c2)c1 [Compound A224]
21 | > 2000 | CS(=O)(=O)NC12CC(COc3ccc4c(c3)CCCC4c3cc(Cl)c(OCCCl)c(C#N)c3)(C1)C2 (centres unmarked) [Compound A247]

Second part, the molecule before the results:

Row | SMILES | IC50 [nM]
22 | CC(C)(c1ccc(OCc2cncc(NS(C)(=O)=O)c2)cc1)c1cc(Cl)c(OCCCl)c(C#N)c1 [Compound A49] | 500 to 2000
23 | CS(=O)(=O)Nc1nccc(COc2ccc3c(c2)CC[C@@H]3c2cc(Cl)c(OCCCl)c(C#N)c2)n1 [A35(R)] | < 500
24 | CS(=O)(=O)N1CC2(CC(Oc3ccc4c(ccn4-c4cc(Cl)c(OCCCl)c(C#N)c4)c3)C2)C1 [Compound A163] | 500 to 2000
25 | Cn1nc(NS(C)(=O)=O)cc1COc1ccc(C(C)(C)c2cc(Cl)c(OCCCl)c(C#N)c2)cc1 [Compound A93] | 500 to 2000
26 | CC(C)(c1ccc(-c2ccn3c(S(C)(=O)=O)c(N)nc3c2)cc1)c1cc(Cl)c(OCCCl)c(C#N)c1 [Compound A112] | > 2000
27 | CS(=O)(=O)Nc1ncc2c(n1)CN(Cc1ccc3c(ccn3-c3cc(Cl)c(OCCCl)c(C#N)c3)c1)CC2 [Compound A153] | > 2000
28 | Cn1nc(-c2cc(Cl)c(OCCCl)c(C#N)c2)c2ccc(OCc3ccnc(NS(C)(=O)=O)n3)cc21 [Compound A77] | > 2000
29 | CS(=O)(=O)Nc1nccc(COc2ccc3c(-c4cc(Cl)c(OCCCl)c(C#N)c4)csc3c2)n1 [Compound A61] | < 500
30 | CS(=O)(=O)Nc1nccc(COc2ccc3c(c2)COC3c2cc(Cl)c(OCCCl)c(C#N)c2)n1 (centres unmarked) [Compound A85] | > 2000
31 | CS(=O)(=O)Nc1nccc(COc2ccc3c(c2)OCCN3c2cc(Cl)c(OCCCl)c(C#N)c2)n1 [Compound A28, N-(4-(((4-(3-chloro-4-(2-chloroethoxy)-5-cyanophenyl)-3,4-dihydro-2H-benzo[b][1,4]oxazin-7-yl)oxy)methyl)pyrimidin-2-yl)methanesulfonamide] | 500 to 2000
32 | CC(C)(c1ccc(OCc2ccnc(NS(C)(=O)=O)n2)cc1)c1cnc(N2CCCCC2)c(Cl)c1 [Compound A105] | > 2000
33 | CS(=O)(=O)N1CCN(Cc2ccc3c(ccn3-c3cc(Cl)c(OCCCl)c(C#N)c3)c2)CC1 [Compound A123] | > 2000
34 | CS(=O)(=O)N1CC(O)(COc2ccc3c(ccn3-c3cc(Cl)c(OCCCl)c(C#N)c3)c2)C1 [Compound A158] | 500 to 2000
35 | Cc1nc(NS(C)(=O)=O)ncc1COc1ccc(C(C)(C)c2cc(Cl)c(OCCCl)c(C#N)c2)cc1 [Compound A91] | 500 to 2000
36 | Cc1cc2cc(OCC34CC(NS(C)(=O)=O)(C3)C4)ccc2n1-c1cc(Cl)c(OCCCl)c(C#N)c1 [Compound A139] | > 2000
37 | CS(=O)(=O)Nc1ncc(Cn2cc3ccc(-c4cc(Cl)c(OCCCl)c(C#N)c4)cc3n2)cn1 [Compound A160] | > 2000
38 | CS(=O)(=O)Nc1ncc(COc2ccc3c(ccn3-c3cc(Cl)c(OCCCl)c(C#N)c3)c2)c(N)n1 [Compound A10] | > 2000
39 | CC(C)COc1c(Cl)cc(-n2ccc3cc(OCc4ccnc(NS(C)(=O)=O)n4)ccc32)cc1C#N [Compound A71] | > 2000
40 | CS(=O)(=O)Nc1nccc(COc2ccc3c(c2)CC[C@H]3c2cc(Cl)c(OCCCl)c(C#N)c2)n1 [A35(S)] | 500 to 2000
41 | CC(C)(c1ccc(OCc2ccnc(NS(C)(=O)=O)n2)cc1)c1cnc(OCCCl)c(Cl)c1 [Compound A103] | > 2000
42 | CC(C)(c1ccc(OCc2cncnc2N)cc1)c1cc(Cl)c(OCCCl)c(C#N)c1 [Compound A94] | 500 to 2000
43 | CS(=O)(=O)Nc1nccc(COc2ccc3c(ccn3-c3cc(Cl)c(OCC4COC4)c(C#N)c3)c2)n1 [Compound A73] | > 2000
44 | CS(=O)(=O)N[C@H]1C[C@@H](COc2ccc3c(ccn3-c3cc(Cl)c(OCCCl)c(C#N)c3)c2)C1 [Compound A136] | 500 to 2000
45 | CC(CO)(c1ccc(OCc2ccnc(NS(C)(=O)=O)n2)cc1)c1cc(Cl)c(OCCCl)c(C#N)c1 (centres unmarked) [Compound A89] | > 2000
46 | CC(Oc1ccc2c(ccn2-c2cc(Cl)c(OCCCl)c(C#N)c2)c1)C1CN(S(C)(=O)=O)C1 (centres unmarked) [Compound A159] | 500 to 2000
47 | CS(=O)(=O)N1CCN(CCc2ccc3c(ccn3-c3cc(Cl)c(OCCCl)c(C#N)c3)c2)C(=O)C1 [Compound A125] | > 2000
